Measured values taken from patent publication US6737383B1, “Herbicidal oxadiazolidines” (priority 1999, dated 2004).

Key:
bedstraw = experiment: Test B pre/postemergence bedstraw; type: in vivo, Galium aparine
Procedure, shortened: (§1)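 Herbicidal effect was estimated by eye on a ten-point control scale after plants spent twelve to sixteen days in a greenhouse following soil or foliar treatment. Foliar sprays targeted plants at one to four leaves; all doses were formulated in a non-phytotoxic solvent with surfactant.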

crabgrass = experiment: Test B pre/postemergence crabgrass; type: in vivo, Digitaria sanguinalis
Procedure, shortened: as §1

purple nutsedge = experiment: Test B pre/postemergence purple nutsedge; type: in vivo, Cyperus rotundus
Procedure, shortened: as §1

wild oat = experiment: Test B pre/postemergence wild oat; type: in vivo, Avena fatua; conditions: for Plant response rating, Wild oats: Postemergence
Procedure, shortened: as §1

velvetleaf = experiment: Test B pre/postemergence velvetleaf; type: in vivo, Abutilon theophrasti; conditions: for Plant response rating, Velvetleaf: Postemergence
Procedure, shortened: as §1

blackgrass = experiment: Test B pre/postemergence blackgrass; type: in vivo, Alopecurus myosuroides
Procedure, shortened: as §1

soybean = experiment: Test B pre/postemergence soybean; type: in vivo, Glycine max; conditions: for Plant response rating, Soybean: Postemergence
Procedure, shortened: as §1

morningglory = experiment: Test B pre/postemergence morningglory; type: in vivo, Ipomoea hederacea
Procedure, shortened: as §1

pigweed = experiment: Test B pre/postemergence pigweed; type: in vivo, Amaranthus retroflexus; conditions: for Plant response rating, Redroot pigweed: Postemergence
Procedure, shortened: as §1

rape = experiment: Test B pre/postemergence rape; type: in vivo, Brassica napus
Procedure, shortened: as §1

surinam grass = experiment: Test B pre/postemergence surinam grass; type: in vivo, Brachiaria decumbens
Procedure, shortened: as §1

wheat = experiment: Test B pre/postemergence wheat; type: in vivo, Triticum aestivum; conditions: for Plant response rating, Wheat: Postemergence
Procedure, shortened: as §1

cocklebur = experiment: Test B pre/postemergence cocklebur; type: in vivo, Xanthium strumarium
Procedure, shortened: as §1

corn = experiment: Test B pre/postemergence corn; type: in vivo, Zea mays
Procedure, shortened: as §1

giant foxtail = experiment: Test B pre/postemergence giant foxtail; type: in vivo, Setaria faberii
Procedure, shortened: as §1

sugar beet = experiment: Test B pre/postemergence sugar beet; type: in vivo, Beta vulgaris; conditions: for Plant response rating, Sugarbeets: Postemergence
Procedure, shortened: as §1

[1] = Postemergence, Rate 125 g/ha, scale 0 to 10, 0 is no effect, 10 is complete control
[2] = Preemergence, Rate 62 g/ha, scale 0 to 10 (0 no effect, 10 complete control)
[3] = Preemergence, Rate 125 g/ha, scale 0 to 10, 0 is no effect, 10 is complete control
[4] = Preemergence, Rate 500 g/ha, scale of 0 to 10 where 0 is no effect and 10 is complete control
[5] = Postemergence, Rate 62 g/ha, scale of 0 to 10, 0 is no effect, 10 is complete control
[6] = Postemergence, Rate 500 g/ha, scale of 0 to 10 where 0 is no effect and 10 is complete control
[7] = Rate 250 g/ha, Postemergence, scale of 0 to 10 where 0 is no effect and 10 is complete control
[8] = Rate 500 g/ha, scale of 0 to 10 where 0 is no effect and 10 is complete control
[9] = Rate 250 g/ha, scale of 0 to 10 where 0 is no effect and 10 is complete control

Q: How did the “Bedstraw plant response rating” value (bedstraw; [1]) turn out when CCOC(=O)C=C(Cn1c(=O)on(C(=O)N(c2ccccc2)C(C)C)c1=O)OCC [Compound 578] was run?
A: 8

Q: And the “Bedstraw plant response rating” value (bedstraw; [2])?
A: 0

Q: And the “Bedstraw plant response rating” value (bedstraw; [3])?
A: 0

Q: And the “Bedstraw plant response rating (0 to 10 scale)” value (bedstraw; Preemergence, Rate 250 g/ha)?
A: 0

Q: And the “Bedstraw plant response rating” value (bedstraw; [4])?
A: 0

Q: What about the “Crabgrass plant response rating” value (crabgrass; [5]) of the same compound?
A: 0

Q: What about the “Crabgrass plant response rating” value (crabgrass; [1]) of the same compound?
A: 2

Q: And the “Plant response rating, Crabgrass” value (crabgrass; [6])?
A: 9

Q: And the “Crabgrass plant response rating” value (crabgrass; [2])?
A: 0

Q: What about the “Crabgrass plant response rating” value (crabgrass; [3]) of the same compound?
A: 9

Q: What about the “Crabgrass plant response rating (0 to 10 scale)” value (crabgrass; Preemergence, Rate 250 g/ha) of the same compound?
A: 9

Q: What about the “Crabgrass plant response rating” value (crabgrass; [4]) of the same compound?
A: 10

Q: And the “Plant response rating, Crabgrass” value (crabgrass; [7])?
A: 4

Q: And the “Plant response rating, Nutsedge” value (purple nutsedge; [6])?
A: 0

Q: And the “Nutsedge plant response rating” value (purple nutsedge; [2])?
A: 0

Q: And the “Nutsedge plant response rating” value (purple nutsedge; [3])?
A: 0

Q: What about the “Nutsedge plant response rating (0 to 10 scale)” value (purple nutsedge; Preemergence, Rate 250 g/ha) of the same compound?
A: 0

Q: What about the “Nutsedge plant response rating” value (purple nutsedge; [4]) of the same compound?
A: 0

Q: What about the “Plant response rating, Wild oats” value (wild oat; [8]) of the same compound?
A: 0

Q: What about the “Wild oats plant response rating” value (wild oat; [2]) of the same compound?
A: 0

Q: What about the “Wild oats plant response rating” value (wild oat; [3]) of the same compound?
A: 0

Q: What about the “Wild oats plant response rating (0 to 10 scale)” value (wild oat; Preemergence, Rate 250 g/ha) of the same compound?
A: 2

Q: And the “Wild oats plant response rating” value (wild oat; [4])?
A: 2

Q: And the “Plant response rating, Wild oats” value (wild oat; [9])?
A: 0

Q: What about the “Plant response rating, Velvetleaf” value (velvetleaf; [8]) of the same compound?
A: 3

Q: And the “Velvetleaf plant response rating” value (velvetleaf; [2])?
A: 0

Q: And the “Velvetleaf plant response rating” value (velvetleaf; [3])?
A: 2

Q: What about the “Velvetleaf plant response rating (0 to 10 scale)” value (velvetleaf; Preemergence, Rate 250 g/ha) of the same compound?
A: 2

Q: And the “Velvetleaf plant response rating” value (velvetleaf; [4])?
A: 2

Q: What about the “Plant response rating, Velvetleaf” value (velvetleaf; [9]) of the same compound?
A: 4

Q: And the “Blackgrass plant response rating” value (blackgrass; [5])?
A: 0

Q: And the “Blackgrass plant response rating” value (blackgrass; [1])?
A: 0

Q: What about the “Plant response rating, Blackgrass” value (blackgrass; [6]) of the same compound?
A: 2

Q: And the “Blackgrass plant response rating” value (blackgrass; [2])?
A: 0

Q: What about the “Blackgrass plant response rating” value (blackgrass; [3]) of the same compound?
A: 0

Q: What about the “Blackgrass plant response rating (0 to 10 scale)” value (blackgrass; Preemergence, Rate 250 g/ha) of the same compound?
A: 0

Q: What about the “Blackgrass plant response rating” value (blackgrass; [4]) of the same compound?
A: 4

Q: What about the “Plant response rating, Blackgrass” value (blackgrass; [7]) of the same compound?
A: 0

Q: And the “Plant response rating, Soybean” value (soybean; [8])?
A: 4

Q: And the “Soybean plant response rating” value (soybean; [2])?
A: 0

Q: And the “Soybean plant response rating” value (soybean; [3])?
A: 0

Q: And the “Soybean plant response rating (0 to 10 scale)” value (soybean; Preemergence, Rate 250 g/ha)?
A: 0

Q: What about the “Soybean plant response rating” value (soybean; [4]) of the same compound?
A: 0

Q: And the “Plant response rating, Soybean” value (soybean; [9])?
A: 3

Q: And the “Morningglory plant response rating” value (morningglory; [5])?
A: 9

Q: And the “Morningglory plant response rating” value (morningglory; [1])?
A: 10

Q: What about the “Plant response rating, Morningglory” value (morningglory; [6]) of the same compound?
A: 10

Q: What about the “Morningglory plant response rating” value (morningglory; [2]) of the same compound?
A: 0

Q: What about the “Morningglory plant response rating” value (morningglory; [3]) of the same compound?
A: 0

Q: And the “Morningglory plant response rating (0 to 10 scale)” value (morningglory; Preemergence, Rate 250 g/ha)?
A: 0

Q: What about the “Morningglory plant response rating” value (morningglory; [4]) of the same compound?
A: 0

Q: And the “Plant response rating, Morningglory” value (morningglory; [7])?
A: 10

Q: And the “Plant response rating, Redroot pigweed” value (pigweed; [8])?
A: 3

Q: And the “Redroot pigweed plant response rating” value (pigweed; [2])?
A: 2

Q: And the “Redroot pigweed plant response rating” value (pigweed; [3])?
A: 4

Q: And the “Redroot pigweed plant response rating (0 to 10 scale)” value (pigweed; Preemergence, Rate 250 g/ha)?
A: 9

Q: What about the “Redroot pigweed plant response rating” value (pigweed; [4]) of the same compound?
A: 10

Q: What about the “Plant response rating, Redroot pigweed” value (pigweed; [9]) of the same compound?
A: 3

Q: And the “Rape plant response rating” value (rape; [5])?
A: 2

Q: And the “Rape plant response rating” value (rape; [1])?
A: 2

Q: What about the “Plant response rating, Rape” value (rape; [6]) of the same compound?
A: 4

Q: What about the “Rape plant response rating” value (rape; [2]) of the same compound?
A: 0

Q: What about the “Rape plant response rating” value (rape; [3]) of the same compound?
A: 0

Q: And the “Rape plant response rating (0 to 10 scale)” value (rape; Preemergence, Rate 250 g/ha)?
A: 2

Q: And the “Rape plant response rating” value (rape; [4])?
A: 4

Q: What about the “Plant response rating, Rape” value (rape; [7]) of the same compound?
A: 4

Q: What about the “B. signalgrass plant response rating” value (surinam grass; [5]) of the same compound?
A: 0

Q: What about the “B. signalgrass plant response rating” value (surinam grass; [1]) of the same compound?
A: 0

Q: What about the “Plant response rating, B. signalgrass” value (surinam grass; [6]) of the same compound?
A: 0

Q: What about the “B. signalgrass plant response rating” value (surinam grass; [2]) of the same compound?
A: 0

Q: And the “B. signalgrass plant response rating” value (surinam grass; [3])?
A: 3

Q: And the “B. signalgrass plant response rating (0 to 10 scale, 0 is no effect, 10 is complete control)” value (surinam grass; Preemergence, Rate 250 g/ha)?
A: 9

Q: And the “B. signalgrass plant response rating” value (surinam grass; [4])?
A: 9

Q: And the “Plant response rating, B. signalgrass” value (surinam grass; [7])?
A: 0

Q: What about the “Plant response rating, Wheat” value (wheat; [8]) of the same compound?
A: 0

Q: What about the “Wheat plant response rating” value (wheat; [2]) of the same compound?
A: 0

Q: And the “Wheat plant response rating” value (wheat; [3])?
A: 0

Q: And the “Wheat plant response rating (0 to 10 scale)” value (wheat; Preemergence, Rate 250 g/ha)?
A: 0

Q: And the “Wheat plant response rating” value (wheat; [4])?
A: 2

Q: And the “Plant response rating, Wheat” value (wheat; [9])?
A: 0

Q: What about the “Cocklebur plant response rating” value (cocklebur; [5]) of the same compound?
A: 0

Q: And the “Cocklebur plant response rating” value (cocklebur; [1])?
A: 0

Q: And the “Plant response rating, Cocklebur” value (cocklebur; [6])?
A: 0

Q: And the “Cocklebur plant response rating” value (cocklebur; [2])?
A: 0

Q: What about the “Cocklebur plant response rating” value (cocklebur; [3]) of the same compound?
A: 0

Q: And the “Cocklebur plant response rating (0 to 10 scale)” value (cocklebur; Preemergence, Rate 250 g/ha)?
A: 0

Q: What about the “Cocklebur plant response rating” value (cocklebur; [4]) of the same compound?
A: 3

Q: And the “Plant response rating, Cocklebur” value (cocklebur; [7])?
A: 0

Q: And the “Corn plant response rating” value (corn; [5])?
A: 0

Q: What about the “Corn plant response rating” value (corn; [1]) of the same compound?
A: 0

Q: And the “Plant response rating, Corn” value (corn; [6])?
A: 0

Q: What about the “Corn plant response rating” value (corn; [2]) of the same compound?
A: 3

Q: What about the “Corn plant response rating” value (corn; [3]) of the same compound?
A: 2

Q: And the “Corn plant response rating (0 to 10 scale)” value (corn; Preemergence, Rate 250 g/ha)?
A: 2

Q: What about the “Corn plant response rating” value (corn; [4]) of the same compound?
A: 4

Q: What about the “Plant response rating, Corn” value (corn; [7]) of the same compound?
A: 0

Q: What about the “Giant foxtail plant response rating” value (giant foxtail; [5]) of the same compound?
A: 0

Q: What about the “Giant foxtail plant response rating” value (giant foxtail; [1]) of the same compound?
A: 4

Q: What about the “Plant response rating, Giant foxtail” value (giant foxtail; [6]) of the same compound?
A: 8

Q: And the “Giant foxtail plant response rating” value (giant foxtail; [2])?
A: 2

Q: And the “Giant foxtail plant response rating” value (giant foxtail; [3])?
A: 9

Q: What about the “Giant foxtail plant response rating (0 to 10 scale)” value (giant foxtail; Preemergence, Rate 250 g/ha) of the same compound?
A: 10

Q: What about the “Giant foxtail plant response rating” value (giant foxtail; [4]) of the same compound?
A: 10

Q: And the “Plant response rating, Giant foxtail” value (giant foxtail; [7])?
A: 7

Q: And the “Plant response rating, Sugarbeets” value (sugar beet; [8])?
A: 4

Q: And the “Sugarbeets plant response rating” value (sugar beet; [2])?
A: 0

Q: What about the “Sugarbeets plant response rating” value (sugar beet; [3]) of the same compound?
A: 2

Q: What about the “Sugarbeets plant response rating (0 to 10 scale)” value (sugar beet; Preemergence, Rate 250 g/ha) of the same compound?
A: 3

Q: What about the “Sugarbeets plant response rating” value (sugar beet; [4]) of the same compound?
A: 3

Q: What about the “Plant response rating, Sugarbeets” value (sugar beet; [9]) of the same compound?
A: 0
